One data set concerns the target CYP2C9 (Homo sapiens, UniProt P11712). Kind of data set: CYP450 inhibition, fluorescent substrate assay, CYP2C9. Type of data set: biochemical. The following applies: pH 7.4. On the procedure:
(§1) Assay 4: CYP450 Inhibition […] This fluorescent molecule was measured using a fluorescent plate reader (Victor2 (Wallac) or Fluoroskan (Labsystems)). Compounds inhibiting the enzymatic reaction will result in a decrease of fluorescent signal. CYP P450 enzymes were prepared in house or commercially bought and stored at −80° C. [table] The assay was performed in black 96 well Costar plates. Test compounds were added to a CYP P450 enzyme solution in the presence of an NADPH generating system. After 5 min of preincubation at 37° C., the freshly prepared, phosphate buffered (pH 7.4) substrate solution was added. Known CYP P450 inhibitors were used as positive controls, negative controls were run without CYP P450 enzyme. For final reaction mixture concentrations, see Table 6. […] Then, the reaction was stopped by the addition of 200 μl acetonitrile, and the fluorescent signal was detected. [table] […] Inhibition of TMC114 Metabolisation

Data set [1] concerns wild-type HIV-1 IIIB strain. Put plainly: Antiviral activity in MT4 LTR-EGFP cellular assay. Type of data set: cell-based. The following applies: Human immunodeficiency virus 1, 72 h; wild-type HIV-1 IIIB, MT4 LTR-EGFP cells, three days after infection; pEC50 = -log10(EC50); read-out: Antiviral Activity IIIB pEC50 (converted). On the procedure: (§2) Assay 1 &2: Antiviral Activity/Toxicity
The compounds of the present invention were tested for antiviral activity in a cellular assay, which was performed according to the following procedure.
The human T-cell line MT4 is engineered with Green Fluorescent Protein (GFP) and an HIV-specific promoter, HIV-1 long terminal repeat (LTR). This cell line is designated MT4 LTR-EGFP, and can be used for the in vitro evaluation of anti-HIV activity of investigational compounds. In HIV-1 infected cells, the Tat protein is produced which upregulates the LTR promotor and finally leads to stimulation of the GFP reporter production, allowing measuring ongoing HIV-infection fluorometrically.
(§3) The ratio of CC50 to EC50 is defined as the selectivity index (SI) and is an indication of the selectivity of the anti-HIV activity of the inhibitor. The ultimate monitoring of HIV-1 infection and cytotoxicity is done using a scanning microscope. Image analysis allows very sensitive detection of viral infection. Measurements are done before cell necrosis, which usually takes place about five days after infection, in particular measurements are performed three days after infection.
A pEC50 value corresponds to −log10(EC50). A pCC50 value corresponds to −log10(CC50).

In another data set the target is T1, CYP2C19 (Homo sapiens, UniProt P33261).
T1 construct: host or cells: E. coli
Kind of data set: CYP450 inhibition, fluorescent substrate assay, CYP2C19. Type of data set: biochemical. The following applies: E. coli expressed CYP2C19, pH 7.4, probe CEC (25 μM), 10 μM test compound, substrate CEC 25 μM, read-out: 2C19-CEC % inh. On the procedure:
as §1

A short description of the next data set: in vitro. Type of data set: in vitro ADME, human. The following applies: human, pH 7.4. The source says:
Assay 3: Metabolic Stability of Test Compounds (HLM15′)
Sub-cellular tissue preparations are made according to Gorrod et al. (Xenobiotica, 5, pp. 453-462 (1975)) by centrifugal separation after mechanical homogenization of tissue. Human liver tissue is rinsed in ice-cold 0.1 M Tris-HCl (pH 7.4) buffer to wash excess blood. Tissue is then blotted dry, weighed and chopped coarsely using surgical scissors. The tissue pieces are homogenized in 3 volumes of ice-cold 0.1 M phosphate buffer (pH 7.4) using either a Potter-S (Braun, Italy) equipped with a Teflon pestle or a Sorvall Omni-Mix homogenizer, for 7×10 sec. In both cases, the vessel is kept in/on ice during the homogenization process. Tissue homogenates are centrifuged at 9000×g for 20 min at 4° C. using a Sorvall centrifuge or Beckman Ultracentrifuge. The resulting supernatant can be stored at −80° C. and is designated ‘S9’. The S9 fraction is centrifuged at 100,000×g for 60 min at 4° C. using a Beckman ultracentrifuge. The resulting supernatant is carefully aspirated, aliquoted and designated ‘cytosol’. The pellet is re-suspended in 0.1 M phosphate buffer (pH 7.4) in a final volume of 1 ml per 0.5 g original tissue weight and designated ‘microsomes’. All sub-cellular fractions are aliquoted, immediately frozen in liquid nitrogen and stored at −80° C. until use.
Heat-inactivated (10 min at 95° C.) ‘S9’ or microsomes were used for blank experiments. Reaction mixtures were incubated at 37° C. for 5 min, after which the reaction was started by the addition of 0.8 mM β-NADP. The reaction was incubated for 0 or 15 min. Next, the reaction was stopped by addition of 2 volumes of DMSO (or acetonitrile). Samples were centrifuged (10 min, 900×g) and analyzed by LC-MS.

A short description of data set [2]: Cytotoxicity in mock-infected MT4 CMV-EGFP cells. Type of data set: cell-based. The following applies: human, pCC50 = -log10(CC50), read-out: Toxicity MT4 pCC50 (converted).
From the text: as §2
Analogously, MT4 cells are engineered with GFP and the constitutional cytomegalovirus (CMV) promotor. This cell line is designated MT4 CMV-EGFP, and can be used for the in vitro evaluation of cytotoxicity of investigational compounds. In this cell line, GFP levels are comparably to those of infected MT4 LTR-EGFP cells. Cytotoxic investigational compounds reduce GFP levels of mock-infected MT4 CMV-EGFP cells.
as §3, with “Effective concentration values such as 50% effective concentration (EC50) can be determined and are usually expressed in μM. An EC50 value is defined as the concentration of test compound that reduces the fluorescence of HIV-infected cells by 50%. The 50% cytotoxic concentration (CC50 in μM) is defined as the concentration of test compound that reduces fluorescence of the mock-infected cells by 50%. The ratio” for “The ratio”
Table 2 lists pEC50 values against the wild-type HIV-1 IIIB strain as well as pCC50 values for a selected number of compounds of the invention. A pEC50 value corresponds to −log10(EC50). A pCC50 value corresponds to −log10(CC50).

The target in another data set is T2, CYP2D6 (Homo sapiens, UniProt P10635).
T2 construct: host or cells: E. coli
Put plainly: CYP450 inhibition, fluorescent substrate assay, CYP2D6. Type of data set: biochemical. The following applies: E. coli expressed CYP2D6, pH 7.4, probe AMMC (3 μM), 10 μM test compound, substrate AMMC 3 μM, read-out: 2D6-AMMC % inh. How it is done: as §1

In another data set the target is T3, CYP1A2 (Homo sapiens, UniProt P05177).
T3 construct: host or cells: E. coli
T3 sequence (P05177 1-516): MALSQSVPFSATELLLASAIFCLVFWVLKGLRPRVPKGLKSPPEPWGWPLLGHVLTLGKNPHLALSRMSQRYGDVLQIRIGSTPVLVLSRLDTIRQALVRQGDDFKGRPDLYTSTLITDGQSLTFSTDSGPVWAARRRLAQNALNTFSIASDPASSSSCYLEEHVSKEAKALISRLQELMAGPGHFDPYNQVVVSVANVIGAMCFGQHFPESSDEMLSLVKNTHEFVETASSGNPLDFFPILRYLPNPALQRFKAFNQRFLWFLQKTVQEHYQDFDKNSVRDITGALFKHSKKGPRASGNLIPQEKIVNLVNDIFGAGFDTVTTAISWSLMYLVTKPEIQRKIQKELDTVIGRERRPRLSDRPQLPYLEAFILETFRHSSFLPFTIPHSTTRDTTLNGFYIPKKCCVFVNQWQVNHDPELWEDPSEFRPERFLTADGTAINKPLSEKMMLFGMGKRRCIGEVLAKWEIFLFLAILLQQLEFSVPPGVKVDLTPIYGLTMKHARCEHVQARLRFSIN
Kind of data set: CYP450 inhibition, fluorescent substrate assay, CYP1A2. The following applies: E. coli expressed CYP1A2, pH 7.4, probe CEC (5 μM), 10 μM test compound, substrate CEC 5 μM, read-out: 1A2-CEC % inh. Type of data set: biochemical. How it is done:
as §1

The next data set addresses T4, CYP3A4 (Homo sapiens, UniProt P08684).
T4 construct: host or cells: E. coli
Kind of data set: CYP450 inhibition, fluorescent substrate assay, CYP3A4. Type of data set: biochemical. The following applies: 10 μM test compound; for inhibition at 10 min, 10 μM: E. coli expressed CYP3A4, pH 7.4, probe DBF (1 μM), substrate DBF 1 μM, read-out: 3A4-DBF % inh. How it is done:
as §1

Where [3] appears, read: E. coli expressed CYP3A4, pH 7.4, probe BFC (150 μM), substrate BFC 150 μM, read-out: 3A4-BFC % inh.
Setting [4] is: E. coli expressed CYP3A4, pH 7.4, probe BQ (60 μM), substrate BQ 60 μM, read-out: 3A4-BQ % inh.

Like-named read-outs stand apart in the source and are kept apart here.

T4 sequence (P08684 whole entry): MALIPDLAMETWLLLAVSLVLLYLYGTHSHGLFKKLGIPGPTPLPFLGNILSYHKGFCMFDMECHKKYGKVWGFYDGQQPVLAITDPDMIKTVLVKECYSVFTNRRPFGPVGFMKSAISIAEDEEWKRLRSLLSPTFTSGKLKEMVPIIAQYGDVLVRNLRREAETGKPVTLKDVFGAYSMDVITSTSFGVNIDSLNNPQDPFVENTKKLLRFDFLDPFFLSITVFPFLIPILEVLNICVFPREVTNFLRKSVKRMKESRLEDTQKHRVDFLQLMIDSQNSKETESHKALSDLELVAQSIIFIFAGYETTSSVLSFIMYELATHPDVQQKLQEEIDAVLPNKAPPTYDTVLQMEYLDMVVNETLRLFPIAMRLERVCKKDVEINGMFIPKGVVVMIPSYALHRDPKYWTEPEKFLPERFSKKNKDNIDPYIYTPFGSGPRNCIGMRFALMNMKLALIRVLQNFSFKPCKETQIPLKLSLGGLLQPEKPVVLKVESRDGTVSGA
T1 sequence (P33261 whole entry): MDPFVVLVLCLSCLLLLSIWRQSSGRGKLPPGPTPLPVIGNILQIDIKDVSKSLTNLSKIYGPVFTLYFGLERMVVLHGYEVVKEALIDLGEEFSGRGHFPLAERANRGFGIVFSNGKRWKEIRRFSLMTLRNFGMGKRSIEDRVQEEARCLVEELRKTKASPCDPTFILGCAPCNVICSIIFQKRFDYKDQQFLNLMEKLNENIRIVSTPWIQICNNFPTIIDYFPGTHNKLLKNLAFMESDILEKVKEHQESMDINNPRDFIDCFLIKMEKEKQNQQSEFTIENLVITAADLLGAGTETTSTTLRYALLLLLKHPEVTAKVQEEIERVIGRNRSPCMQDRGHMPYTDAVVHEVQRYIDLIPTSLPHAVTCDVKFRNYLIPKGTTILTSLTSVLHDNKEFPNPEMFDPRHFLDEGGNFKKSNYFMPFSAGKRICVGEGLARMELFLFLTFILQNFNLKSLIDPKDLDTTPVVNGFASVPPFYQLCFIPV
Sequence of CYP2C9 (P11712 whole entry): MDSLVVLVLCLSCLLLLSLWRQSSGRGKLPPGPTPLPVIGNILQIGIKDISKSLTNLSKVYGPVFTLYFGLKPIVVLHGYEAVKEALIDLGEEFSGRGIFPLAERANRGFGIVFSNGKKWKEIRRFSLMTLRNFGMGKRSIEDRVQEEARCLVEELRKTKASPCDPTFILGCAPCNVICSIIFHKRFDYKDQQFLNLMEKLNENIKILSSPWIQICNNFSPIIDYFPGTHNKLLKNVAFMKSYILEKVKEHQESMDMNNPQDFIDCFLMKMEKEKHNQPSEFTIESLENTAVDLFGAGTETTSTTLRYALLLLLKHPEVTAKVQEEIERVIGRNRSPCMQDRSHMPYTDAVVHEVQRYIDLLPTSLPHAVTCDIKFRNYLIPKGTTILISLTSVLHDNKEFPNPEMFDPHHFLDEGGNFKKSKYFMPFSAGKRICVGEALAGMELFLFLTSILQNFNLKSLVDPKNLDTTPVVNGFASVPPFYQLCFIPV
T2 sequence (P10635 whole entry): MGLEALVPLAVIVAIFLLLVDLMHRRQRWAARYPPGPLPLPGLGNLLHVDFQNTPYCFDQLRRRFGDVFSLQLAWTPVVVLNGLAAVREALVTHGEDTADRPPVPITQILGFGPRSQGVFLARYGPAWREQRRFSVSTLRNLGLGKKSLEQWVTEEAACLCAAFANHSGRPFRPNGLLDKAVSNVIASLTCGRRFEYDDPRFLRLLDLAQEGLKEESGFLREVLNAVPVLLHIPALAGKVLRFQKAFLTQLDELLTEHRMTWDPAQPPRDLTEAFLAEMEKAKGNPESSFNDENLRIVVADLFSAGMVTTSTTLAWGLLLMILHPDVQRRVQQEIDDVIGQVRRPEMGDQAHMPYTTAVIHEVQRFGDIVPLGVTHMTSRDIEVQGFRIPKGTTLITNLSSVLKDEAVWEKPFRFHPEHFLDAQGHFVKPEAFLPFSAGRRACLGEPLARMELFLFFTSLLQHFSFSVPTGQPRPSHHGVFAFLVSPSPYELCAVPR

Turning to `CC(C)CN(C[C@@H](O)[C@H](Cc1ccccc1)NC(=O)OCc1cncs1)C(=O)c1ccc(Cl)cc1` [Compound C16], the inhibition at 30 min, 10 μM was found to be 97% against CYP2C9, 90% on CYP2C19, 71% on CYP3A4 (setting [3]) and 82% on CYP3A4 (setting [4]). Moreover, the EC50 in data set [1] was 38.9 µM. Further, the recovery at 15 min, 5 μM in “in vitro” worked out at 59%. Also, in data set [2], the CC50 at 3 days was 40.7 µM. Moreover, at CYP2D6, the inhibition at 45 min, 10 μM came out at 43%. In addition, the inhibition at 15 min, 10 μM on CYP1A2 worked out at 50%. Besides, the inhibition at 10 min, 10 μM at CYP3A4 stood at 92%.
For the compound `O=C(N[C@@H](Cc1ccccc1)[C@H](O)CN(CC1CCCCC1)C(=O)c1ccncc1)OCc1cncs1` [Compound C27], the inhibition at 30 min, 10 μM against CYP2C9 is 84%; at CYP2C19 it was 96%; at CYP3A4 (setting [3]), 101%; at CYP3A4 (setting [4]) it was 81%. The EC50 in data set [1] is 74.1 µM. The recovery at 15 min, 5 μM in the data set “in vitro” came out at 98%. Also, the CC50 at 3 days in data set [2] was 83.2 µM. On CYP2D6, the inhibition at 45 min, 10 μM worked out at 86%. Also, the inhibition at 15 min, 10 μM on CYP1A2 came to 10%. Further, on CYP3A4, the inhibition at 10 min, 10 μM was determined as 90%.
In the case of `CC(C)CN(C[C@@H](O)[C@H](Cc1ccccc1)NC(=O)OCc1cncs1)C(=O)C1CCC(F)(F)CC1` [Compound C23], the inhibition at 30 min, 10 μM amounted to 89% on CYP2C9, 77% at CYP2C19, 94% on CYP3A4 (setting [3]) and 73% on CYP3A4 (setting [4]). Also, the EC50 in data set [1] is 51.3 µM. The recovery at 15 min, 5 μM in the data set “in vitro” was 72%. Besides, the CC50 at 3 days in data set [2] was 55 µM. Further, the inhibition at 45 min, 10 μM at CYP2D6 is 65%. At CYP1A2, the inhibition at 15 min, 10 μM was 22%. Further, on CYP3A4, the inhibition at 10 min, 10 μM stood at 92%.
For `CC(C)CN(C[C@@H](O)[C@H](Cc1ccccc1)NC(=O)OCc1cncs1)C(=O)c1cccc(C(F)(F)F)c1` [Compound C11], the inhibition at 30 min, 10 μM turned out to be 97% on CYP2C9, 100% at CYP2C19, 94% on CYP3A4 (setting [3]) and 78% on CYP3A4 (setting [4]). The EC50 in data set [1] is 38 µM. The recovery at 15 min, 5 μM in “in vitro” is 52%. Further, the CC50 at 3 days in data set [2] was 34.7 µM. Also, the inhibition at 45 min, 10 μM at CYP2D6 is 86%. Besides, on CYP1A2, the inhibition at 15 min, 10 μM was 45%. Further, at CYP3A4, the inhibition at 10 min, 10 μM amounted to 99%.
For the compound `CC(C)CN(C[C@@H](O)[C@H](Cc1ccccc1)NC(=O)OCc1cncs1)C(=O)c1ccc(F)cc1` [Compound C6], the inhibition at 30 min, 10 μM is 96% on CYP2C9, 94% on CYP2C19, 82% on CYP3A4 (setting [3]) and 83% on CYP3A4 (setting [4]). The EC50 in data set [1] was 79.4 µM. The same compound yielded a recovery at 15 min, 5 μM in the data set “in vitro” of 81%. Also, the CC50 at 3 days in data set [2] is above 100 µM. Also, the inhibition at 45 min, 10 μM at CYP2D6 amounted to 65%. Also, the inhibition at 15 min, 10 μM on CYP1A2 was 41%. The inhibition at 10 min, 10 μM on CYP3A4 turned out to be 92%.
Take `COc1ccc(C(=O)N(CC(C)C)C[C@@H](O)[C@H](Cc2ccccc2)NC(=O)OCc2cncs2)cc1` [Compound C5]: the inhibition at 30 min, 10 μM was found to be 94% on CYP2C9, 86% on CYP2C19, 92% on CYP3A4 (setting [3]) and 82% at CYP3A4 (setting [4]). For the same compound, the EC50 in data set [1] was 85.1 µM. In “in vitro”, this compound showed a recovery at 15 min, 5 μM of 83%. In data set [2], the CC50 at 3 days is 87.1 µM. The inhibition at 45 min, 10 μM on CYP2D6 is 41%. The inhibition at 15 min, 10 μM at CYP1A2 stood at 14%. The inhibition at 10 min, 10 μM on CYP3A4 was 92%.
With `CC(C)CN(C[C@@H](O)[C@H](Cc1ccccc1)NC(=O)OCc1cncs1)C(=O)c1ccc(C(F)(F)F)cc1` [Compound C4], the inhibition at 30 min, 10 μM on CYP2C9 was determined as 99%; at CYP2C19, 92%; at CYP3A4 (setting [3]) it was 95%; at CYP3A4 (setting [4]) it was 85%. Also, in data set [1], the EC50 was 31.6 µM. In the data set “in vitro”, this compound gave a recovery at 15 min, 5 μM of 57%. Also, the CC50 at 3 days in data set [2] was 39.8 µM. On CYP2D6, the inhibition at 45 min, 10 μM is 79%. Also, on CYP1A2, the inhibition at 15 min, 10 μM was 62%. For the same compound, the inhibition at 10 min, 10 μM on CYP3A4 is 99%.

(Values after patent publication US8664391B2, “Amide compounds as boosters of antivirals” (Janssen R&D Ireland Ltd, priority 2008, dated 2014).)
